Measured values reported in PMC10820264, “Combining Experimental and Computational Methods to Produce Conjugates of Anticholinesterase and Antioxidant Pharmacophores with Linker Chemistries Affecting Biological Activities Related to Treatment of Alzheimer’s Disease” (Molecules, 2024).
Where two headings read alike, the source gives them in different places. Marks after values point to notes of the source that are not given here.

How the values were obtained:
[1] = ABTS radical cation scavenging assay; settings: for ABTS•+-Scavenging Activity TEAC: Trolox equivalents
Human erythrocyte AChE [2] = target: T1, Human erythrocyte AChE (Homo sapiens, UniProt P22303); parameters: method as in PMID 33322783; settings: cited from earlier work
equine serum BChE [3] = target: T2, equine serum BChE (Equus caballus, UniProt P81908); parameters: method as in PMID 33322783; settings: cited from earlier work
Porcine liver CES [4] = system: Porcine liver CES; parameters: method as in PMID 33322783; settings: cited from earlier work
[5] = target: T3, peripheral anionic site of Electrophorus electricus AChE (EeAChE) (Electrophorus electricus, UniProt O42275); parameters: method as in PMID 33322783; settings: compound 20 μM; cited from earlier work
[6] = parameters: method as in PMID 33322783; settings: Trolox equivalents; cited from earlier work
[7] = parameters: method as in PMID 33322783; settings: Trolox equivalents; cited from earlier work; remark: listed apart in the source
Human erythrocyte AChE [8] = target: T1, Human erythrocyte AChE; assay: biochemical; assay type: biochemical
Procedure: (§1) Human erythrocyte AChE and equine serum BChE were purchased from Milamed (Perm, Russia). Porcine liver CES, substrates, and reference compounds were from Sigma-Aldrich (St. Louis, MO, USA). The activity of enzymes was measured spectrophotometrically, as described in detail in [72] using ATCh iodide, BTCh iodide, and 4-NPA as substrates for AChE, BChE, and CES, respectively. Experimental conditions: K,Na—phosphate buffer (100 mM), 25 °C, pH 7.5 for AChE and BChE and pH 8.0 for CES assay. Measurements were carried out on a FLUOStar Optima microplate reader (BMG Labtech, Ortenberg, Germany).
(§2) Test compounds were dissolved in DMSO; the final concentration of solvent in the incubation mixture was 2% (v/v).

equine serum BChE [9] = target: T2, equine serum BChE; assay: biochemical; assay type: biochemical; settings: for BChE activity relative to tacrine (times more active): vs tacrine
Procedure: as §1, §2

Porcine liver CES [10] = assay: CES inhibition, spectrophotometric, 4-NPA substrate; assay type: biochemical
Procedure: as §1
Test compounds were dissolved in DMSO; the final concentration of solvent in the incubation mixture was 2% (v/v). […]

[11] = target: T3, peripheral anionic site of Electrophorus electricus AChE (EeAChE); assay type: binding
Aβ42 = Aβ42 (Homo sapiens, UniProt P05067); assay: Inhibition of Aβ42 self-aggregation, thioflavin T fluorescence; assay type: biochemical; settings: Aβ42 50 µM, compound 100 µM; read-out: Inhibition of Aβ42 Self-Aggregation
[12] = Ferric-reducing antioxidant power (FRAP) assay; settings: Trolox equivalents
[13] = system: free radicals in mouse brain homogenate (TBHP-initiated); assay type: biochemical; settings: read-out: Radical Scavenging Capacity, Luminol Chemiluminescence Assay IC50
[14] = system: spontaneous lipid peroxidation in mouse brain homogenate; assay type: biochemical; settings: read-out: Inhibition of Spontaneous Lipid Peroxidation in Mouse Brain Homogenate, TBARS Assay IC50
AChE [15] = target: T4, AChE (Homo sapiens, UniProt P22303); parameters: method as in PMID 33322783; settings: cited from earlier work
eqBChE [16] = target: T5, eqBChE (Equus caballus, UniProt P81908); parameters: method as in PMID 33322783; settings: cited from earlier work
AChE [17] = target: T4, AChE; assay: biochemical; assay type: biochemical; settings: for Ki: read-out: AChE Ki (competitive inhibition constant)
Procedure: (§3) A mechanism of AChE and BChE inhibition was assessed by a detailed analysis of enzyme kinetics with three increasing concentrations of inhibitor and six substrate concentrations, as described in detail in [72].

eqBChE [18] = target: T5, eqBChE; assay: biochemical; assay type: biochemical; settings: for Ki: read-out: eqBChE Ki (competitive inhibition constant)
Procedure: as §3

T1 sequence (P22303 other isoform, or with tags, fused parts or gaps): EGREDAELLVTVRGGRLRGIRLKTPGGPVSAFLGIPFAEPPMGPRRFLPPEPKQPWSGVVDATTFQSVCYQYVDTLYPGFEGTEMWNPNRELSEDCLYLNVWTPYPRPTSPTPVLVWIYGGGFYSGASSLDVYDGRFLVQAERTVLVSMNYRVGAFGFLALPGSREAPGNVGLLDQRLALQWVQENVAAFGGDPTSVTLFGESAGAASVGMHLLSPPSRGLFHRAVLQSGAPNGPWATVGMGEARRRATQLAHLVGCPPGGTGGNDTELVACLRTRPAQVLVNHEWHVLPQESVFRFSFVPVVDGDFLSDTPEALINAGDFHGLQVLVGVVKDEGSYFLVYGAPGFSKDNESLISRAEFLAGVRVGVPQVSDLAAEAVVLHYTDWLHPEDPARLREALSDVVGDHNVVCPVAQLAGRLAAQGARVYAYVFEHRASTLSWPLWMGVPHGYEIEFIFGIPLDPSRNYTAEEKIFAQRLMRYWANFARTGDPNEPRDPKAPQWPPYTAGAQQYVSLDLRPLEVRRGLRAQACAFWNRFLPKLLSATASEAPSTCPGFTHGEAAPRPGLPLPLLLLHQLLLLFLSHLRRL
T4 sequence (P22303 other isoform, or with tags, fused parts or gaps): as above
T2 sequence (P81908 whole entry): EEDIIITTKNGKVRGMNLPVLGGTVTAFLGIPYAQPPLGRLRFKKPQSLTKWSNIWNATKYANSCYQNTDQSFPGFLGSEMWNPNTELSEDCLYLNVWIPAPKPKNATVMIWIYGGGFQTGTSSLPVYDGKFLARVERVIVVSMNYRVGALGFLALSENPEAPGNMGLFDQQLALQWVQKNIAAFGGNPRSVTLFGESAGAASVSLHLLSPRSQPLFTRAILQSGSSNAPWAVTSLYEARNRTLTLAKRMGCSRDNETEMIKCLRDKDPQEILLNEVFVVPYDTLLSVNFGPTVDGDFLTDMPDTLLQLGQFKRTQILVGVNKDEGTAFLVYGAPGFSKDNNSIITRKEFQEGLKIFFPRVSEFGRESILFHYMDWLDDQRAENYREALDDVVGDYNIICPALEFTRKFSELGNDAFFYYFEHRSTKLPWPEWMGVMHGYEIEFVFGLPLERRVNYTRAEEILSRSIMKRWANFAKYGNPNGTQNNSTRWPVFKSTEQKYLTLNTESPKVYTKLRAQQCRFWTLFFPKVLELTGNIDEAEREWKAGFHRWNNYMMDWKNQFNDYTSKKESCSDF
T5 sequence (P81908 whole entry): as above
T3 sequence (O42275 24-633): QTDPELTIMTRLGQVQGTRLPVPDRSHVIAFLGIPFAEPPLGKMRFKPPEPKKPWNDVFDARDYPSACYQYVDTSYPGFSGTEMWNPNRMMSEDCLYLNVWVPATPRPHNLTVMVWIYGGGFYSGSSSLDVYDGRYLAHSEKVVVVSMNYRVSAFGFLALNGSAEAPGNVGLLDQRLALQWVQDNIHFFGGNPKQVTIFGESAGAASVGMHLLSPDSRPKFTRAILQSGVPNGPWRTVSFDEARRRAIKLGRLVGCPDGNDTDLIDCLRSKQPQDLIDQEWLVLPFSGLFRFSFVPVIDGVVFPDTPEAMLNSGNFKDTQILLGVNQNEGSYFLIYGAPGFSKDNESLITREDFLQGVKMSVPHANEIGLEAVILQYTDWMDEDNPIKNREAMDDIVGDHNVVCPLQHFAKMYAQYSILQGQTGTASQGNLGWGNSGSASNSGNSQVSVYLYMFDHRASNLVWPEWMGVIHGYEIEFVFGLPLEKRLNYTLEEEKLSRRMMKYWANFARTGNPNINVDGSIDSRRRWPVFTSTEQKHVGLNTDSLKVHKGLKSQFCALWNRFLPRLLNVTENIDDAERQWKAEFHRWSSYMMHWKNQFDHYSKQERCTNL
Aβ42, sequence (P05067 672-713): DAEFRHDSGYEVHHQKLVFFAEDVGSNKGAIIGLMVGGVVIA

Row | Structure (SMILES) | IC50 [1] [nM] | IC50 (Human erythrocyte AChE [2]) [nM] | IC50 (equine serum BChE [3]) [nM] | CES % inhibition at 20 μM (Porcine liver CES [4]) | Propidium Displacement [5] | ABTS•+-Scavenging Activity TEAC [6] | Ferric-Reducing Antioxidant Power TE [7] | IC50 (Human erythrocyte AChE [8]) [nM] | IC50 (equine serum BChE [9]) [nM] | CES % inhibition at 20 μM (Porcine liver CES [10]) [%] | Propidium Displacement [11] [%] | inhibition at 100 µM (Aβ42) [%] | ABTS•+-Scavenging Activity TEAC [1] | Ferric-Reducing Antioxidant Power TE [12] | IC50 [13] [nM] | IC50 [14] [nM] | AChE αKi (non-competitive inhibition constant) (AChE [17]) [nM] | Ki (AChE [17]) [nM] | eqBChE αKi (non-competitive inhibition constant) (eqBChE [18]) [nM] | Ki (eqBChE [18]) [nM] | other results
1 | CC(C)(C)c1cc(/C=N/CCNc2c3c(nc4ccccc24)CCC3)cc(C(C)(C)C)c1O [13a] | 22300 ± 1500 | 4860 ± 10 | 1920 ± 110 | 26.1 ± 0.7% ^a,*** | 18.1 ± 1.6 ^a,*^,§ % | 0.92 ± 0.03 ^a | 0.51 ± 0.03 ^a,*** | – | – | – | – | – | – | – | – | – | – | – | – | – | –
2 | CC(C)(C)c1cc(/C=N/CCNc2c3c(nc4ccccc24)CCCC3)cc(C(C)(C)C)c1O [14a] | 17800 ± 1500 | 5980 ± 131 | 1610 ± 40 | 28.6 ± 1.6% ^a,*** | 18.2 ± 1.6 ^a,*^,§ % | 1.13 ± 0.05 ^a | 0.58 ± 0.03 ^a,*** | – | – | – | – | – | – | – | – | – | – | – | – | – | –
3 | CC(C)(C)c1cc(C=NCCCCCCCCNc2c3c(nc4ccccc24)CCCC3)cc(C(C)(C)C)c1O [14d, 2,6-Di-tert-butyl-4-{[8-(1,2,3,4-tetrahydro-acridin-9-ylamino)-octylimino]-methyl}-phenol] | 18200 ± 700 | – | – | – | – | – | – | 17.1 ± 1.6 | 9.39 ± 0.42 | 28.8 ± 2.0 | 14.8 ± 1.0 | 70.4 ± 5.6 | 1.06 ± 0.03 | 0.70 ± 0.03 | 1900 ± 100 | 20400 ± 2300 | – | – | – | – | AChE potency relative to compound 14a (times more potent) (Human erythrocyte AChE [8]; vs 14a): 350 times; AChE activity relative to tacrine (times more active) (Human erythrocyte AChE [8]; vs tacrine): ~ 40 times
4 | CC(C)(C)c1cc(/C=N/CCNc2c3c(nc4ccccc24)CCCCC3)cc(C(C)(C)C)c1O [15a] | 18800 ± 800 | 4030 ± 30 | 419 ± 40 | 30.1 ± 2.5% ^a,*** | 16.3 ± 1.3 ^a % | 1.11 ± 0.04 ^a | 0.52 ± 0.01 ^a,*** | – | – | – | – | – | – | – | – | – | – | – | – | – | AChE αKi (non-competitive inhibition constant) (AChE [15]): 4300 ± 20 ^b,* nM; Ki (AChE [15]; read-out: AChE Ki (competitive inhibition constant)): 1580 ± 100 nM; eqBChE αKi (non-competitive inhibition constant) (eqBChE [16]): 437 ± 10 ^b,*** nM; Ki (eqBChE [16]; read-out: eqBChE Ki (competitive inhibition constant)): 164 ± 5 nM
5 | CC(C)(C)c1cc(C=NCCCCCCNc2c3c(nc4ccccc24)CCCCC3)cc(C(C)(C)C)c1O [15c, 2,6-Di-tert-butyl-4-{[6-(7,8,9,10-tetrahydro-6H-cyclohepta[b]quinolin-11-ylamino)-hexylimino]-methyl}-phenol] | 22300 ± 1100 | – | – | – | – | – | – | 151 ± 13 | 10.6 ± 0.2 | 25.4 ± 0.9 | 16.8 ± 1.2 | 43.4 ± 3.9 | 0.90 ± 0.03 | 0.52 ± 0.02 | 2300 ± 300 | 27600 ± 1700 | 108 ± 3 | 69.8 ± 5 | 9.34 ± 0.62 | 5.13 ± 0.1 | –
6 | CC(C)(C)c1cc(C=NCCCCCCCCNc2c3c(nc4ccccc24)CCCCC3)cc(C(C)(C)C)c1O [15d, 2,6-Di-tert-butyl-4-{[8-(7,8,9,10-tetrahydro-6H-cyclohepta[b]quinolin-11-ylamino)-octylimino]-methyl}-phenol] | 19600 ± 800 | – | – | – | – | – | – | 26 ± 2.4 | 6.24 ± 0.54 | 25.5 ± 1.1 | 14.9 ± 1.2 | 63.5 ± 5 | 1.00 ± 0.03 | 0.73 ± 0.02 | 3000 ± 100 | 29100 ± 2400 | 31.4 ± 2.4 | 19.9 ± 0.8 | 5.68 ± 0.06 | 4.91 ± 0.42 | BChE activity relative to tacrine (times more active) (equine serum BChE [9]): 5 times; type of AChE inhibition (AChE [17]): mixed type; type of BChE inhibition (eqBChE [18]): mixed type
7 | CC(C)(C)c1cc(CNCCNc2c3c(nc4ccccc24)CCC3)cc(C(C)(C)C)c1O [16a] | 14600 ± 800 | – | – | 19.6 ± 1.3% ^a,*** | 16.4 ± 1.4 ^a % | 1.39 ± 0.05 ^a,*** | – | – | – | – | – | – | – | 0.57 ± 0.02 | – | – | – | – | – | – | –
8 | CC(C)(C)c1cc(CNCCNc2c3c(nc4ccccc24)CCCCC3)cc(C(C)(C)C)c1O [18a] | 15300 ± 600 | – | – | 26.0 ± 3.9% ^a,* | 13.6 ± 1.2 ^a % | 1.35 ± 0.06 ^a,*** | – | – | – | – | – | – | – | 0.44 ± 0.06 | – | – | – | – | – | – | –
9 | CC(C)(C)c1cc(CNCCCCCCNc2c3c(nc4ccccc24)CCCCC3)cc(C(C)(C)C)c1O [18c, 2,6-Di-tert-butyl-4-{[6-(7,8,9,10-tetrahydro-6H-cyclohepta[b]quinolin-11-ylamino)-hexylamino]-methyl}-phenol] | 21600 ± 1100 | – | – | – | – | – | – | 103 ± 4 | 14.9 ± 0.3 | 16.8 ± 0.5 | 12.5 ± 0.9 | 47.8 ± 3.8 | 1.00 ± 0.03 | 0.43 ± 0.02 | 14600 ± 800 | 24600 ± 2800 | 101 ± 5 | 83.1 ± 1.4 | 17.3 ± 0.2 | 7.83 ± 0.76 | –
10 | CC(C)(C)c1cc(CNCCCCCCCCNc2c3c(nc4ccccc24)CCCCC3)cc(C(C)(C)C)c1O [18d, 2,6-Di-tert-butyl-4-{[8-(7,8,9,10-tetrahydro-6H-cyclohepta[b]quinolin-11-ylamino)-octylamino]-methyl}-phenol] | 15800 ± 600 | – | – | – | – | – | – | 30.8 ± 0.2 | 5.96 ± 0.58 | 13.9 ± 1.2 | 12.3 ± 0.8 | 59.6 ± 4.7 | – | 0.45 ± 0.01 | 9200 ± 600 | 20200 ± 3300 | 25.1 ± 0.2 | 13 ± 1 | 6.06 ± 0.41 | 4.25 ± 0.33 | BChE activity relative to tacrine (times more active) (equine serum BChE [9]): 5 times; time to reach the activity level of Trolox in ABTS radical scavenging ([1]; compound at 20 μM (IC50 of Trolox)): less than 1 min
